The values that follow are results of earlier work, collected in patent US20230121528A1, “SALMONELLA-BASED DNA VACCINES IN COMBINATION WITH AN ANTIBIOTIC” (VAXIMM AG, priority 2020, published 2023).

In this data set the test system is glioblastoma. The following applies: glioblastoma patients.

On to “avastin: monoclonal antibody avastin targeting VEGF”, for which the survival benefit entry is recorded as “only showed benefits in progression free survival, but not in overall survival”.
